Laboratory results published in patent publication US9125913B2, “Bcl-2-selective apoptosis-inducing agents for the treatment of cancer and immune diseases” (AbbVie Inc., priority 2008, dated 2015).

System: GST-Bcl-2
Test: TR-FRET binding assay, Bcl-2
Conditions: TR-FRET Ki values
Summary of the method: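 Ki values come from Wang's competitive-binding equation applied to TR-FRET signal (excitation 340/35 nm; emission 520/525 nm F-Bak peptide, 495/510 nm Tb antibody). Protein, probe and antibody incubated with compound 3 h at room temperature; dilution series began at 50 μM as 2× stock in 10% DMSO.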

| SMILES | Binding selectivity ratio (Bcl-XL Ki/Bcl-2 Ki) |
| --- | --- |
| CN1CCN(Nc2ccc(S(=O)(=O)NC(=O)c3ccc(N4CCN(CC5=C(c6ccc(Cl)cc6)CC(C)(C)CC5)CC4)cc3Oc3ccc4[nH]ccc4c3)cc2S(=O)(=O)C(F)(F)F)CC1 [EXAMPLE 220, 4-(4-{[2-(4-chlorophenyl)-4,4-dimethylcyclohex-1-en-1-yl]methyl}piperazin-1-yl)-2-(1H-indol-5-yloxy)-N-({4-[(4-methylpiperazin-1-yl)amino]-3-[(trifluoromethyl)sulfonyl]phenyl}sulfonyl)benzamide] | 163.7 |
| CN(C)CCCN(C)c1ccc(S(=O)(=O)NC(=O)c2ccc(N3CCN(Cc4ccccc4-c4ccc(Cl)cc4)CC3)cc2Oc2ccccc2)cc1[N+](=O)[O-] [Example 87, 4-{4-[(4′-chloro-1,1′-biphenyl-2-yl)methyl]piperazin-1-yl}-N-({4-[[3-(dimethylamino)propyl](methyl)amino]-3-nitrophenyl}sulfonyl)-2-phenoxybenzamide] | 533.8 |
| CC1(C)CCC(CN2CCN(c3ccc(C(=O)NS(=O)(=O)c4ccc(NCCC5CCOCC5)c([N+](=O)[O-])c4)c(Oc4ccc5[nH]ccc5c4)c3)CC2)=C(c2ccc(Cl)cc2)C1 [EXAMPLE 291, 4-(4-{[2-(4-chlorophenyl)-4,4-dimethylcyclohex-1-en-1-yl]methyl}piperazin-1-yl)-2-(1H-indol-5-yloxy)-N-({3-nitro-4-[(2-tetrahydro-2H-pyran-4-ylethyl)amino]phenyl}sulfonyl)benzamide] | >1179.1 |
| CC1(C)CCC(CN2CCN(c3ccc(C(=O)NS(=O)(=O)c4ccc(NC5CCN(CCCF)CC5)c([N+](=O)[O-])c4)c(Oc4ccc5[nH]ccc5c4)c3)CC2)=C(c2ccc(Cl)cc2)C1 [EXAMPLE 235, 4-(4-{[2-(4-chlorophenyl)-4,4-dimethylcyclohex-1-en-1-yl]methyl}piperazin-1-yl)-N-[(4-{[1-(3-fluoropropyl)piperidin-4-yl]amino}-3-nitrophenyl)sulfonyl]-2-(1H-indol-5-yloxy)benzamide] | 231.4 |
| CN1CCC(O)(CNc2ccc(S(=O)(=O)NC(=O)c3ccc(N4CCN(CC5=C(c6ccc(Cl)cc6)CC(C)(C)CC5)CC4)cc3Oc3cccc4[nH]ccc34)cc2[N+](=O)[O-])CC1 [EXAMPLE 186, 4-(4-{[2-(4-chlorophenyl)-4,4-dimethylcyclohex-1-en-1-yl]methyl}piperazin-1-yl)-N-[(4-{[(4-hydroxy-1-methylpiperidin-4-yl)methyl]amino}-3-nitrophenyl)sulfonyl]-2-(1H-indol-4-yloxy)benzamide] | 1069.2 |
| CC1(C)CCC(CN2CCN(c3ccc(C(=O)NS(=O)(=O)c4ccc(NCCOC(F)(F)F)c([N+](=O)[O-])c4)c(Oc4cccc5[nH]ccc45)c3)CC2)=C(c2ccc(Cl)cc2)C1 [EXAMPLE 292, 4-(4-{[2-(4-chlorophenyl)-4,4-dimethylcyclohex-1-en-1-yl]methyl}piperazin-1-yl)-2-(1H-indol-4-yloxy)-N-[(3-nitro-4-{[2-(trifluoromethoxy)ethyl]amino}phenyl)sulfonyl]benzamide] | >1104.2 |
| CC1(C)CCC(CN2CCN(c3ccc(C(=O)NS(=O)(=O)c4ccc(NCCCN5CCNC(=O)C5)c([N+](=O)[O-])c4)c(Oc4ccc5[nH]ccc5c4)c3)CC2)=C(c2ccc(Cl)cc2)C1 [EXAMPLE 222, 4-(4-{[2-(4-chlorophenyl)-4,4-dimethylcyclohex-1-en-1-yl]methyl}piperazin-1-yl)-2-(1H-indol-5-yloxy)-N-[(3-nitro-4-{[3-(3-oxopiperazin-1-yl)propyl]amino}phenyl)sulfonyl]benzamide] | 1275.3 |
| CC1(C)CCC(CN2CCN(c3ccc(C(=O)NS(=O)(=O)c4cnc(NC5CCN(C6CC6)CC5)c(Cl)c4)c(Oc4cccc5[nH]ncc45)c3)CC2)=C(c2ccc(Cl)cc2)C1 [EXAMPLE 448, N-({5-chloro-6-[(1-cyclopropylpiperidin-4-yl)amino]pyridin-3-yl}sulfonyl)-4-(4-{[2-(4-chlorophenyl)-4,4-dimethylcyclohex-1-en-1-yl]methyl}piperazin-1-yl)-2-(1H-indazol-4-yloxy)benzamide] | 3119 |
| CN(C)CCCNc1ccc(S(=O)(=O)NC(=O)c2ccc(N3CCN(CC4=C(c5ccc(Cl)cc5)CC(C)(C)CC4)CC3)cc2Oc2ccc3[nH]ccc3c2)cc1S(=O)(=O)C(F)(F)Cl [Example 67, N-[(3-{[chloro(difluoro)methyl]sulfonyl}-4-{[3-(dimethylamino)propyl]amino}phenyl)sulfonyl]-4-(4-{[2-(4-chlorophenyl)-4,4-dimethylcyclohex-1-en-1-yl]methyl}piperazin-1-yl)-2-(1H-indol-5-yloxy)benzamide] | >2.3 |
| CC1(C)CCC(CN2CCN(c3ccc(C(=O)NS(=O)(=O)c4ccc(NC(CO)C5CCOCC5)c([N+](=O)[O-])c4)c(Oc4ccc5[nH]ccc5c4)c3)CC2)=C(c2ccc(Cl)cc2)C1 (stereo not shown) [EXAMPLE 242, 4-(4-{[2-(4-chlorophenyl)-4,4-dimethylcyclohex-1-en-1-yl]methyl}piperazin-1-yl)-N-({4-[(2-hydroxy-1-tetrahydro-2H-pyran-4-ylethyl)amino]-3-nitrophenyl}sulfonyl)-2-(1H-indol-5-yloxy)benzamide] | >367.6 |
| CC1(C)CCC(CN2CCN(c3ccc(C(=O)NS(=O)(=O)c4ccc(S(C)(=O)=O)cc4)c(Oc4ccc5[nH]ccc5c4)c3)CC2)=C(c2ccc(Cl)cc2)C1 [EXAMPLE 382, 4-(4-{[2-(4-chlorophenyl)-4,4-dimethylcyclohex-1-en-1-yl]methyl}piperazin-1-yl)-2-(1H-indol-5-yloxy)-N-{[4-(methylsulfonyl)phenyl]sulfonyl}benzamide] | >573.9 |
| CC1(C)CCC(CN2CCN(c3ccc(C(=O)NS(=O)(=O)c4cnc(OC[C@H]5CC[C@H](O)CC5)c(Cl)c4)c(Oc4cccc5[nH]ncc45)c3)CC2)=C(c2ccc(Cl)cc2)C1 [EXAMPLE 421, Trans-N-({5-chloro-6-[(4-hydroxycyclohexyl)methoxy]pyridin-3-yl}sulfonyl)-4-(4-{[2-(4-chlorophenyl)-4,4-dimethylcyclohex-1-en-1-yl]methyl}piperazin-1-yl)-2-(1H-indazol-4-yloxy)benzamide] | 2090 |
| CC1(C)CCC(CN2CCN(c3ccc(C(=O)NS(=O)(=O)c4ccc(NCC5(O)CCCCC5)c([N+](=O)[O-])c4)c(Oc4ccc5[nH]ccc5c4)c3)CC2)=C(c2ccc(Cl)cc2)C1 [EXAMPLE 238, 4-(4-{[2-(4-chlorophenyl)-4,4-dimethylcyclohex-1-en-1-yl]methyl}piperazin-1-yl)-N-[(4-{[(1-hydroxycyclohexyl)methyl]amino}-3-nitrophenyl)sulfonyl]-2-(1H-indol-5-yloxy)benzamide] | >1534.3 |
| O=C(NS(=O)(=O)c1ccc(NCCCN2CCOCC2)c(S(=O)(=O)C(F)(F)F)c1)c1ccc(N2CCN(Cc3ccccc3-c3ccc(Cl)cc3)CC2)cc1Oc1cccc2[nH]ccc12 [Example 65, 4-{4-[(4′-chloro-1,1′-biphenyl-2-yl)methyl]piperazin-1-yl}-2-(1H-indol-4-yloxy)-N-({4-[(3-morpholin-4-ylpropyl)amino]-3-[(trifluoromethyl)sulfonyl]phenyl}sulfonyl)benzamide] | 4.8 |
| CC1(C)CCC(CN2CCN(c3ccc(C(=O)NS(=O)(=O)c4ccc(NC5(CO)CCOCC5)c([N+](=O)[O-])c4)c(Oc4ccc5[nH]ccc5c4)c3)CC2)=C(c2ccc(Cl)cc2)C1 [EXAMPLE 240, 4-(4-{[2-(4-chlorophenyl)-4,4-dimethylcyclohex-1-en-1-yl]methyl}piperazin-1-yl)-N-[(4-{[4-(hydroxymethyl)tetrahydro-2H-pyran-4-yl]amino}-3-nitrophenyl)sulfonyl]-2-(1H-indol-5-yloxy)benzamide] | >795.4 |
| Cn1cncc1CNc1ccc(S(=O)(=O)NC(=O)c2ccc(N3CCN(CC4=C(c5ccc(Cl)cc5)CC(C)(C)CC4)CC3)cc2Oc2ccc3[nH]ccc3c2)cc1[N+](=O)[O-] [EXAMPLE 360, 4-(4-{[2-(4-chlorophenyl)-4,4-dimethylcyclohex-1-en-1-yl]methyl}piperazin-1-yl)-2-(1H-indol-5-yloxy)-N-[(4-{[(1-methyl-1H-imidazol-5-yl)methyl]amino}-3-nitrophenyl)sulfonyl]benzamide] | 633.9 |
| CC1(C)CCC(CN2CCN(c3ccc(C(=O)NS(=O)(=O)c4cnc(NCC5CCOCC5)c(-c5nccs5)c4)c(Oc4cccc5[nH]ccc45)c3)CC2)=C(c2ccc(Cl)cc2)C1 [EXAMPLE 365, 4-(4-{[2-(4-chlorophenyl)-4,4-dimethylcyclohex-1-en-1-yl]methyl}piperazin-1-yl)-2-(1H-indol-4-yloxy)-N-{[6-[(tetrahydro-2H-pyran-4-ylmethyl)amino]-5-(1,3-thiazol-2-yl)pyridin-3-yl]sulfonyl}benzamide] | >612.9 |
| CC1(C)CCC(CN2CCN(c3ccc(C(=O)NS(=O)(=O)c4cnc(OCC5(F)CCOCC5)c(C#N)c4)c(Oc4ccc5[nH]ccc5c4)c3)CC2)=C(c2ccc(Cl)cc2)C1 [EXAMPLE 385, 4-(4-{[2-(4-chlorophenyl)-4,4-dimethylcyclohex-1-en-1-yl]methyl}piperazin-1-yl)-N-({5-cyano-6-[(4-fluorotetrahydro-2H-pyran-4-yl)methoxy]pyridin-3-yl}sulfonyl)-2-(1H-indol-5-yloxy)benzamide] | 2096.5 |
| O=C(NS(=O)(=O)c1ccc(NCCn2ccnn2)c([N+](=O)[O-])c1)c1ccc(N2CCN(Cc3ccccc3-c3ccc(Cl)cc3)CC2)cc1Oc1ccccc1 [Example 164, 4-{4-[(4′-chloro-1,1′-biphenyl-2-yl)methyl]piperazin-1-yl}-N-[(3-nitro-4-{[2-(1H-1,2,3-triazol-1-yl)ethyl]amino}phenyl)sulfonyl]-2-phenoxybenzamide] | 143.3 |
